# Results: patent US20250066286A1, “COMPOSITIONS OF (Z)-ENDOXIFEN AND METHODS OF ENRICHMENT THEREOF” (Atossa Therapeutics, Inc., priority 2022, published 2025)
# Tests used:
# [1] = Stability of (Z)-Endoxifen in acetone (HPLC peak table over time); assay type: physicochemical; settings: for HPLC peak RT 20.80, RRT 1.28 / HPLC peak RT 21.56, RRT 1.33 / HPLC peak RT 21.83, RRT 1.34 / HPLC peak RT 22.68, RRT 1.39 / HPLC peak RT 22.76, RRT 1.40 / Z-form, RT 16.25, RRT 1.00 / E-form, RT 15.40, RRT 0.95 / HPLC peak RT 3.14, RRT 0.19 / HPLC peak RT 4.25, RRT 0.26 / HPLC peak RT 14.68, RRT 0.90 / HPLC peak RT 17.69, RRT 1.09 / HPLC peak RT 20.47, RRT 1.26: acetone, 40° C.; for Z-form, RT 16.25, RRT 1.00: in % (unit assumed)
# [2] = Single solvent slurries of (Z)-endoxifen (XRPD of recovered solid); assay type: physicochemical
# Method: Further solubility analyses were then performed for solvents which formed suspensions at 50° C. […] The suspensions were recovered and filtered with a nylon filter (0.22 μm) during centrifugation at 4000 rpm for 3 minutes. The solid (Z)-endoxifen collected through filtration was analyzed by XRPD. (Z)-endoxifen remaining in the filtrate was precipitated by addition of antisolvent and also subjected to XRPD analysis.
# [3] = SLHT-1D-ACN(100 mg/ml) - Form I reference, FIG. 76: acetonitrile, 100 mg/mL, 50° C., 1 d
# [4] = SLHT-1D-ACT(100 mg/ml), FIG. 77: acetone, 100 mg/mL, 40° C., 1 d
# [5] = SLRT-14D-BME, FIG. 74: butyl methyl ether, 10 mg/mL, RT, 14 d
compound,measurement,setting,value
"CC/C(=C(\c1ccc(O)cc1)c1ccc(OCCNC)cc1)c1ccccc1 [(Z)-endoxifen, (Z)-4-(1-(4-(2-(methylamino)ethoxy)phenyl)-2-phenylbut-1-enyl)phenol]","HPLC peak RT 20.80, RRT 1.28",[1]; 20 hr,0.21%
same,"HPLC peak RT 21.56, RRT 1.33",[1]; 20 hr,0.08%
same,"HPLC peak RT 21.83, RRT 1.34",[1]; 20 hr,0.08%
same,"HPLC peak RT 22.68, RRT 1.39",[1]; 20 hr,0.09%
same,"HPLC peak RT 22.76, RRT 1.40",[1]; 20 hr,0.01%
same,"Z-form, RT 16.25, RRT 1.00",[1]; 20 hr,95.35
same,"E-form, RT 15.40, RRT 0.95",[1]; 24 hr,1.14%
same,"HPLC peak RT 3.14, RRT 0.19",[1]; 24 hr,0.13%
same,"HPLC peak RT 4.25, RRT 0.26",[1]; 24 hr,2.81
same,"HPLC peak RT 14.68, RRT 0.90",[1]; 24 hr,0.04%
same,"HPLC peak RT 17.69, RRT 1.09",[1]; 24 hr,0.09%
same,"HPLC peak RT 20.47, RRT 1.26",[1]; 24 hr,0.05
same,"HPLC peak RT 20.80, RRT 1.28",[1]; 24 hr,0.17%
same,"HPLC peak RT 21.56, RRT 1.33",[1]; 24 hr,0.09%
same,"HPLC peak RT 21.83, RRT 1.34",[1]; 24 hr,0.01%
same,"HPLC peak RT 22.68, RRT 1.39",[1]; 24 hr,0.07%
same,"HPLC peak RT 22.76, RRT 1.40",[1]; 24 hr,0.02%
same,"Z-form, RT 16.25, RRT 1.00",[1]; 24 hr,94.73
same,"E-form, RT 15.40, RRT 0.95",[1]; 28 hr,1.26%
same,"HPLC peak RT 3.14, RRT 0.19",[1]; 28 hr,0.11%
same,"HPLC peak RT 4.25, RRT 0.26",[1]; 28 hr,3.14
same,"HPLC peak RT 14.68, RRT 0.90",[1]; 28 hr,0.04%
same,"HPLC peak RT 17.69, RRT 1.09",[1]; 28 hr,0.1%
same,"HPLC peak RT 20.47, RRT 1.26",[1]; 28 hr,0.06
same,"HPLC peak RT 20.80, RRT 1.28",[1]; 28 hr,0.19%
same,"HPLC peak RT 21.56, RRT 1.33",[1]; 28 hr,0.09%
same,"HPLC peak RT 21.83, RRT 1.34",[1]; 28 hr,0.01%
same,"HPLC peak RT 22.68, RRT 1.39",[1]; 28 hr,0.09%
same,"HPLC peak RT 22.76, RRT 1.40",[1]; 28 hr,0.02%
same,"Z-form, RT 16.25, RRT 1.00",[1]; 28 hr,93.99
same,"E-form, RT 15.40, RRT 0.95",[1]; T0,0.65%
same,"HPLC peak RT 3.14, RRT 0.19",[1]; T0,0.16%
same,"HPLC peak RT 4.25, RRT 0.26",[1]; T0,0.12
same,"HPLC peak RT 14.68, RRT 0.90",[1]; T0,0.04%
same,"HPLC peak RT 17.69, RRT 1.09",[1]; T0,0.08%
same,"HPLC peak RT 20.47, RRT 1.26",[1]; T0,0.03
same,"HPLC peak RT 20.80, RRT 1.28",[1]; T0,0.07%
same,"HPLC peak RT 21.56, RRT 1.33",[1]; T0,0.08%
same,"HPLC peak RT 21.83, RRT 1.34",[1]; T0,0.07%
same,"HPLC peak RT 22.68, RRT 1.39",[1]; T0,0.03%
same,"HPLC peak RT 22.76, RRT 1.40",[1]; T0,0.06%
same,"Z-form, RT 16.25, RRT 1.00",[1]; T0,98.28
same,Stability of (Z)-endoxifen produced from methods using acetone recrystallization only,[1]; summary of TABLES 2 and 3,unstable
same,Output Main phase [phase],"[2]; SLHT-1D-ACN(50 mg/ml), FIG. 80: acetonitrile, 50 mg/mL, 50° C., 1 d",Form I
same,Output Main phase [phase],"[2]; SLHT-1D-ACN(50 mg/ml)-vial attached, FIG. 92: acetonitrile, 50 mg/mL, 50° C., 1 d",Form I
same,Output Crystallinity [high/low/SC/oriented],[2]; [3],high
same,Output Main phase [phase],[2]; [3],Form I
same,Output Main phase [phase],"[2]; SLHT-1D-ACT(50 mg/ml), FIG. 80: acetone, 50 mg/mL, 40° C., 1 d",Form I
same,Output Crystallinity [high/low/SC/oriented],[2]; [4],high
same,Output Main phase [phase],[2]; [4],Form I
same,Output Main phase [phase],"[2]; SLHT-1D-BME, FIG. 75: butyl methyl ether, 10 mg/mL, 40° C., 1 d",Form I
same,Output Main phase [phase],"[2]; SLHT-1D-H2O, FIG. 75: water, 10 mg/mL, 50° C., 1 d",Form I
same,Output Main phase [phase],"[2]; SLHT-1D-HEP, FIG. 75: heptane, 10 mg/mL, 50° C., 1 d",Form I
same,Output Main phase [phase],"[2]; SLRT-1D-DMF(300 mg/ml), FIG. 81: dimethylformamide, 300 mg/mL, RT, 1 d",Form I
same,Output Main phase [phase],"[2]; SLRT-1D-ETA(20 mg/ml), FIG. 81: ethyl acetate, 20 mg/mL, RT, 1 d",Form I
same,Output Main phase [phase],"[2]; SLRT-2D-THF(170 mg/ml), FIG. 81: tetrahydrofuran, 169.7 mg/mL, RT, 2 d",Form I
same,Output Main phase [phase],"[2]; SLRT-3D-ACT(40 mg/ml), FIG. 78: acetone, 40 mg/mL, RT, 3 d",Form I
same,Output Main phase [phase],"[2]; SLRT-3D-BME, FIG. 73: butyl methyl ether, 10 mg/mL, RT, 3 d",Form I
same,Output Main phase [phase],"[2]; SLRT-3D-ETH(40 mg/ml), FIG. 78: ethanol, 40 mg/mL, RT, 3 d",Form I
same,Output Main phase [phase],"[2]; SLRT-3D-H2O, FIG. 73: water, 10 mg/mL, RT, 3 d",Form I
same,Output Main phase [phase],"[2]; SLRT-3D-HEP, FIG. 73: heptane, 10 mg/mL, RT, 3 d",Form I
same,Output Main phase [phase],"[2]; SLRT-6HRS-ACT(40 mg/ml), FIG. 81: acetone, 40 mg/mL, RT, 6 h",Form I
same,Output Main phase [phase],"[2]; SLRT-14D-2PR(100 mg/ml), FIG. 83: 2-propanol, 100 mg/mL, RT, 14 d",Form I
same,Output Main phase [phase],"[2]; SLRT-14D-ACN(100 mg/ml), FIG. 83: acetonitrile, 100 mg/mL, RT, 14 d",Form I
same,Output Main phase [phase],"[2]; SLRT-14D-ACT(40 mg/ml), FIG. 79: acetone, 40 mg/mL, RT, 14 d",Form I
same,Output Main phase [phase],"[2]; SLRT-14D-ACT(100 mg/ml), FIG. 83: acetone, 100 mg/mL, RT, 14 d",Form I
same,Output Main phase [phase],"[2]; SLRT-14D-BAC(100 mg/ml), FIG. 82: butyl acetate, 100 mg/mL, RT, 14 d",Form I
same,Output Crystallinity [high/low/SC/oriented],[2]; [5],low
same,Output Main phase [phase],[2]; [5],Form I
same,Output Main phase [phase],"[2]; SLRT-14D-ETA(100 mg/ml), FIG. 82: ethyl acetate, 100 mg/mL, RT, 14 d",Form I
same,Output Main phase [phase],"[2]; SLRT-14D-ETH(40 mg/ml), FIG. 79: ethanol, 40 mg/mL, RT, 14 d",Form I
same,Output Main phase [phase],"[2]; SLRT-14D-ETH(100 mg/ml), FIG. 82: ethanol, 100 mg/mL, RT, 14 d",Form I
same,Output Main phase [phase],"[2]; SLRT-14D-H2O, FIG. 74: water, 10 mg/mL, RT, 14 d",Form I
same,Output Main phase [phase],"[2]; SLRT-14D-HEP, FIG. 74: heptane, 10 mg/mL, RT, 14 d",Form I
same,Output Main phase [phase],"[2]; SLRT-14D-MET(50 mg/ml), FIG. 84: methanol, 50 mg/mL, RT, 14 d",Form I
same,Output Main phase [phase],"[2]; SLRT-14D-MIBK(100 mg/ml), FIG. 82: methyl isobutyl ketone, 100 mg/mL, RT, 14 d",Form I
same,Output Main phase [phase],"[2]; SLRT-14D-TOL(100 mg/ml), FIG. 83: toluene, 100 mg/mL, RT, 14 d",Form I
same,Polymorphic form recovered (XRPD),[2]; all single solvent slurries,Form I
